From US10959955B1 (RHOSHAN PHARMACEUTICALS, INC., priority 2017, dated 2021)
Values after ≈ are worked out from the molar mass of the structure shown.

How the values were obtained:
[1] = test system: Thromboxane B2; settings: in 5 minutes of post bolus injection; 5 ml of 100 mg/ml ASA injected in less than 2 minutes; cited from earlier work
[2] = cited from earlier work
[3] = physchem
Protocol: The batch volume was made up to 100 ml with addition of 70/30 TBA/water. […] 5 ml aliquots were placed in flint vials and lyophilized. Upon completion of lyophilization, the contents of the vial were reconstituted with 5 ml of Water for Injection.

[4] = test system: platelet aggregation; settings: following oral dosing; cited from earlier work
[5] = Bulk solution stability of Example 3C at 25° C.; type: physicochemical
Protocol: All three solutions were filtered and 5 ml each placed in a Type I flint vials and lyophilized. […] The lyophilized cakes in all vials were shrunken and collapsed. […] Since lyophilization of the ASA-lysine solution was carried out at about −30° C., all water was removed by sublimation at this low temperature. It is not known whether degradation took place during the lyophilization or during the preparation of the bulk solution or combination of both. Therefore, we have investigated the bulk solution stability of example 3C at 25° C.

[6] = oral tablets; cited from earlier work
[7] = Tonicity and pH of reconstituted solutions of ASA; type: physicochemical
Source text: Since the aspirin product will be administered via an IV bolus route, tonicity of the final reconstituted solution is acritical factor to avoid pain at the injection site.

[8] = pH and appearance of bulk and reconstituted solutions of ASA co-lyophilized with bases in TBA/water; type: physicochemical; settings: 20 mg/ml aspirin in 80% TBA/20 water
Source text: The pH of the solution was raised to 6.5 using 1N sodium hydroxide. Phase separation was observed, probably due to salting out of inorganic base from TBA/Water system. In the next trial, we first raised the pH of the solution to 5.0 using 1N sodium hydroxide, and then sodium phosphate, dibasic to raise the pH to 6.5. Sodium phosphate, dibasic was used for a better control of pH. Since we still observed phase separation it appears that inorganic bases or buffers may not be compatible with a 80% TBA/20% water system. We may require more water, for example, 70% TBA/30% water in the system to dissolve the alkalinizing agents.
The reconstituted solution pH was 4.71.
In the next trial, we investigated incorporation of […] to facilitate complete neutralization. […] Arginine was, then, slowly added to the slurry to neutralize aspirin. […] The apparent pH of the bulk solution was 6.49. 5 ml aliquots placed in flint vials and lyophilized. Upon completion of lyophilization, the content of vial was reconstituted with 5 ml of Water for Injection. […] The reconstituted solution pH was 4.8.
Based on the above studies, it was evident that larger amount of base is needed to neutralize ASA in the preferred solvent system. To incorporate more base in the bulk solution, we explored use of 60/40 TBA/water system as solvent for lyophilization. […] The apparent pH of the bulk solution was 6.31. […]

[9] = intravenous vs oral; cited from earlier work
[10] = Reconstitution of ASA lyophile with various basifying agents; type: physicochemical; settings: basifying agent diluents of examples 13 and 14, without polysorbate 80
Protocol: One aspect of this invention was to produce a stable lyophilized product and a solvent system with sufficient bulk solution stability to withstand an aseptic processing and lyophilization process. The lyophilized products we have manufactured in most of these studies were made with 80% TBA/20% to 60% TBA/40% water solvent system and the bulk solution for lyophilization stable for 24 hours with minimal degradation. We have achieved this goal. […] The reconstitution studies were done by reconstituting a 100 mg vial with 5 ml of solution containing a buffer or a basifying agent or a combination of both.

For `CC(=O)Oc1ccccc1C(=O)O.NCCCCC(N)C(=O)O` [aspirin lysine salt], the “Thromboxane B2 inhibited” value [1] is listed as “greater than 95%” and the shelf life ([2]; Bayer sterile dry powder product) is listed as “one year”.
With `NCCCC[C@H](N)C(=O)O` [lysine] the solubility ([3]; organic solvent or mixture) was 2000 µg/mL (≈ 13.7 mM).
In the case of o-acetylsalicylic acid [Aspirin], the “onset of inhibition of platelet aggregation” value [4] is listed as “approximately 40 minutes”, the “Area % of Salicylic Acid” value ([5]; 4 hours) is listed as “about 9 Area %” and the “Area % of Salicylic Acid” value ([5]; Initial) is listed as “about 3 Area %”. The “pH of the solution” value ([2]; aqueous aspirin solution) was “about 2.5”, the “time to 10% of potency loss” value ([2]; concentrated aqueous bulk solution) was “about 1.3 hours” and the degradation rate ([2]; pH 2.5) was “about 2 % per day”. For the same molecule, the “initial onset of pain relief” value [6] was “about 30 minutes”, the “Osmolality (m.Osm/Kg)” value ([7]; 12 mg/mL Na2HPO4 and 27 mg/mL of Tris buffer with 0.05% Tween80, 10 mL, ASA 50 mg/mL) was 717 m.Osm/Kg and the “Osmolality (m.Osm/Kg)” value ([7]; 17.5 mg/mL Tris Buffer with 0.05% Tween80, 20 mL, ASA 25 mg/mL) was 269 m.Osm/Kg. For the same molecule, the “Osmolality (m.Osm/Kg)” value ([7]; 20 mg/mL Na2HPO4 with 0.05% Tween80, 25 mL, ASA 20 mg/mL) was 481 m.Osm/Kg, the “Osmolality (m.Osm/Kg)” value ([7]; 30 mg/mL of lysine and 7.5 mg/mL of Tris buffer, 20 mL, ASA 25 mg/mL) was 338 m.Osm/Kg and the “Osmolality (m.Osm/Kg)” value ([7]; 34 mg/mL Tris Buffer with 0.05% Tween80, 10 mL, ASA 50 mg/mL) was 549 m.Osm/Kg. For the same molecule, the “Osmolality (m.Osm/Kg)” value ([7]; 34 mg/mL Tris Buffer, 10 mL, ASA 50 mg/mL) was 540 m.Osm/Kg, the “Osmolality (m.Osm/Kg)” value ([7]; 40 mg/mL L-Lysine, 20 mL, ASA 25 mg/mL) was 380 m.Osm/Kg and the “Osmolality (m.Osm/Kg)” value ([7]; 40 mg/mL of L-Lysine with 0.05% Tween80, 20 mL, ASA 25 mg/mL) was 388 m.Osm/Kg. The “Osmolality (m.Osm/Kg)” value ([7]; 50 mg/mL Na2HPO4 with 0.05% Tween80, 10 mL, ASA 50 mg/mL) was 1172 m.Osm/Kg, the “Osmolality (m.Osm/Kg)” value ([7]; 68 mg/mL Tris Buffer with 0.05% Tween80, 10 mL, ASA 100 mg/mL) was 1060 m.Osm/Kg and the “Osmolality (m.Osm/Kg)” value ([7]; 68 mg/mL Tris Buffer with 0.05% Tween80, Aspirin API 1 g, 10 mL, ASA 100 mg/mL) was 1036 m.Osm/Kg. For the same molecule, the “apparent pH of the bulk solution” value [8] was 2.9, the “effectiveness of intravenously administered solution versus orally administered equal amount” value [9] was “four times as high” and the “appearance of reconstituted solution” value [10] was “did not show any haziness”.
Molecule tris(hydroxymethyl)aminomethane has a solubility ([3]; 70/30 TBA/water, neat free base without ASA) of 5000 µg/mL.
